# Source: PMC3940083 (International Journal for Parasitology: Drugs and Drug …, 2013)
# What was measured:
# Format in all cases: biochemical
# [1] = biological target: T1, PfAdoMetDC (S-adenosyl-L-methionine decarboxylase) (Plasmodium falciparum, UniProt Q8IJ77); conditions: read-out: Ki
# T1 sequence (Q8IJ77 1-72 limits assumed): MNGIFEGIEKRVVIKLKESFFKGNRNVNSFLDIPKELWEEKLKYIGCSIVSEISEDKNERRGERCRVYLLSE
# T1 sequence (Q8IJ77 73-529 limits assumed): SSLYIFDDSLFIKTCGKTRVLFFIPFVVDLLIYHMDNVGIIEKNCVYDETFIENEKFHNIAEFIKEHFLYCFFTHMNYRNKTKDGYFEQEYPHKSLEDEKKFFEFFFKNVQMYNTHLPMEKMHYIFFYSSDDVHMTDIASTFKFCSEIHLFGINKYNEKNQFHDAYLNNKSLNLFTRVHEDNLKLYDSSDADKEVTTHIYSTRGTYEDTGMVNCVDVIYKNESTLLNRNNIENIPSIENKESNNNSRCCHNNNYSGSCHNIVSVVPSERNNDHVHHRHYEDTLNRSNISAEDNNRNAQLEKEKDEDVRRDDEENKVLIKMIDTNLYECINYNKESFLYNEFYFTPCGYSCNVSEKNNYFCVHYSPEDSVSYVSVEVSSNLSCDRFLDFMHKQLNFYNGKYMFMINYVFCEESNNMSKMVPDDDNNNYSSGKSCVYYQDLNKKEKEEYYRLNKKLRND
# [2] = biological target: T1, PfAdoMetDC (S-adenosyl-L-methionine decarboxylase); test: radiolabeled CO2 release assay, % inhibition at […]; conditions: read-out: % inhibition at 1 μM
# [3] = biological target: T2, PfAdoMetDC/ODC (S-adenosyl-L-methionine decarboxylase, AdoMetDC domain) (Plasmodium falciparum, UniProt Q8IJ77); conditions: read-out: Ki
# T2 sequence (Q8IJ77 1-72): T1 sequence (Q8IJ77 1-72 limits assumed)
# T2 sequence (Q8IJ77 73-1434): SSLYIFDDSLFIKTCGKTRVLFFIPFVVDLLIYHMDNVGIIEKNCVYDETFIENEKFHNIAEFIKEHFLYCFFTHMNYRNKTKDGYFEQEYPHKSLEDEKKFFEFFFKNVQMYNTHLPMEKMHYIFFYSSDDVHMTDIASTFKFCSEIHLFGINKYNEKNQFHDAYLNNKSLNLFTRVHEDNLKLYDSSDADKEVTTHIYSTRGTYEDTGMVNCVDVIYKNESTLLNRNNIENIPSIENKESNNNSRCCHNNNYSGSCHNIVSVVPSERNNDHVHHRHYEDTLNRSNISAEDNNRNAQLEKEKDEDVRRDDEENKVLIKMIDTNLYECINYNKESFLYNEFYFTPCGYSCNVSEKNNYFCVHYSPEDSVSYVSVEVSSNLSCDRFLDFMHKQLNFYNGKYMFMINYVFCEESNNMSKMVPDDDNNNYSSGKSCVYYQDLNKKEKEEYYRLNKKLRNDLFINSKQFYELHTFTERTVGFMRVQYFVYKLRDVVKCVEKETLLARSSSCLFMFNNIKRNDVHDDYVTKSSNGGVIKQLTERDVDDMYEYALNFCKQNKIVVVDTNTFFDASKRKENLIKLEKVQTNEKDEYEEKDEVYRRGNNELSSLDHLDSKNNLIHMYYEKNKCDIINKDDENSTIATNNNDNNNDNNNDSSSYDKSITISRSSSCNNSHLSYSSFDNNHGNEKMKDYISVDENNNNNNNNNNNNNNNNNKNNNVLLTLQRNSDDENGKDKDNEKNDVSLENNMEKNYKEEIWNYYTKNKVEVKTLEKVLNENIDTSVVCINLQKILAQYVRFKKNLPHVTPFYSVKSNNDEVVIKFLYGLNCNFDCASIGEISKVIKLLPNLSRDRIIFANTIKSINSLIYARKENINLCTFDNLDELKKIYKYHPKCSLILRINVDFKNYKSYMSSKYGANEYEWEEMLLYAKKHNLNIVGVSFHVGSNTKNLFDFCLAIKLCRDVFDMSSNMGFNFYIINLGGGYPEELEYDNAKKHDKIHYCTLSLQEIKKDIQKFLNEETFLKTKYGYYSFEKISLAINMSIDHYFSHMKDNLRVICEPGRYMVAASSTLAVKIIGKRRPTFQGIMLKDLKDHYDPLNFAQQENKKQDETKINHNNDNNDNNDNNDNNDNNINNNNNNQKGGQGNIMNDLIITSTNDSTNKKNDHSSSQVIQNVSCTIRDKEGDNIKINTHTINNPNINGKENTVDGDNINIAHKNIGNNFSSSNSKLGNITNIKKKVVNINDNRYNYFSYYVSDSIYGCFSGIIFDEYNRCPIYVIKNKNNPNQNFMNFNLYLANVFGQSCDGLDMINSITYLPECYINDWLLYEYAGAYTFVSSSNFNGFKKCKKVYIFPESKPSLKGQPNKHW
compound,measurement,setting,value
"CN(C/C=C\CN)C[C@H]1O[C@@H](n2cnc3c(N)ncnc32)[C@H](O)[C@@H]1O [MDL73811, 5′-{[(Z)-4-amino-2-butenyl]methylamino}-5′-deoxyadenosine]",KI (inactivation),[1],220 ± 90 nM
"CN(C/C=C\CN)C[C@H]1O[C@@H](n2cnc3c(N)ncnc32)[C@@](O)(F)[C@@H]1O [Genz-644043, 2′-fluoro-5′-{[(Z)-4-amino-2-butenyl]methylamino}-5′-deoxyadenosine]",inhibition at 1 µM,[2],57%
"Cc1nc2c(N)ncnc2n1[C@@H]1O[C@H](CN(C)C/C=C\CN)[C@@H](O)[C@H]1O [Genz-644131, 8-methyl-5′-{[(Z)-4-aminobut-2-enyl]methylamino}-5′-deoxyadenosine]",KI (inactivation),[3],180 ± 20 nM
